Test results: US6080739A (priority 1996, dated 2000)
pIC50: −log10 of the molar value. Like-named read-outs stand apart in the source and are kept apart here.

Legend:
MCF7-ADR [1] = system: MCF7-ADR
MCF-7 = test: cells; format: cell-based; settings: Homo sapiens, MCF7, read-out: IC50 MCF-7
MCF7-ADR [2] = test: cells; settings: Homo sapiens, NCI/ADR-RES, read-out: IC50 MCF7-ADR

COc1cc2c(c(OC)c1OC)-c1ccc(OC)c(=O)cc1[C@@H](NC(C)=O)CC2 [Colchicine]
MCF7-ADR/MCF7 (MCF7-ADR [1]; ratio of IC50 resistant to normal cells): 6,600

COc1cc2c(c(OC)c1OC)-c1ccc(SC)c(=O)cc1C1=Nc3cc(C(C)(C)C)cc(C(C)(C)C)c3OC1C2 (stereo not shown) [Compound IIa]
pIC50 (MCF-7): 7.77

COc1cc2c(c(OC)c1OC)-c1ccc(SC)c(=O)cc1C(=O)CC2 [Compound Ia, Thiocolchicone]
pIC50 (MCF-7): 8.21

COc1cc2c(c(OC)c1OC)-c1ccc(OC)c(=O)cc1C(=O)CC2 [Compound Ib, Colchicone]
pIC50 (MCF-7): 7.64

CC(=O)O[C@H]1C(=O)[C@@]2(C)[C@H]([C@H](OC(=O)c3ccccc3)[C@]3(O)C[C@H](OC(=O)[C@H](O)[C@@H](NC(=O)c4ccccc4)c4ccccc4)C(C)=C1C3(C)C)[C@]1(OC(C)=O)CO[C@@H]1C[C@@H]2O [Taxol]
pIC50 (MCF-7): 8.64
MCF7-ADR/MCF7 (MCF7-ADR [1]; human, mcf7-adr / mcf7 cells): 1,043
pIC50 (MCF7-ADR [2]): 5.62
